From PubChem BioAssay AID1053138 (Broad Institute, 2014)
Calls of active or inactive are those of the source. How the calls were made is not given here.

What was measured:
[1] = test system: HepG2 Trib1 mRNA qPCR, 24 h; test: activators of Trib1 transcript expression – cell-based, qPCR, dose response (AID 1053138)
[2] = as above; details: HepG2 Trib1 mRNA qPCR, 24 h; measured here: Trib1 mRNA max fold induction; stronger effect = higher value

SMILES | AC50 [1] | fold change [2]
CN1C(=O)c2cc(NC(=O)c3ccc(C(F)(F)F)cc3)ccc2OC[C@@H]2O[C@H](CC(=O)NC3Cc4ccccc4C3)CC[C@@H]21 | 310 nM | 3.7
CN1C(=O)c2cc(NC(=O)c3ccc(C(F)(F)F)cc3)ccc2OC[C@@H]2O[C@H](CC(=O)NC3Cc4ccccc4C3)CC[C@H]21 | > 25000 nM (inactive) | 1.3
CN1C(=O)c2cc(NC(=O)c3ccc(C(F)(F)F)cc3)ccc2OC[C@@H]2O[C@@H](CC(=O)NC3Cc4ccccc4C3)CC[C@@H]21 | 1700 nM | 2.7
